What is called pIC50 is the IC50 on a negative log10 scale, so that one unit is a factor of ten. The term inhibition denotes the change of the read-out against control, counted positive when it falls. Low readings indicate a weak effect, high ones a strong effect.

SMILES strings stand for the structures. pIC50: −log10 of the molar value.

Data set [1] relates to FLT3. Set-up: method as in PMID 15126317. As to conditions: cited from earlier work.
The subject of data set [2] is P-STAT3 (Y705), JAK2 substrate. Briefly: Western blot, phosphorylation of STAT3 in MDA-MB-468 cells. It counts as cell-based, human. As to conditions: MDA-MB-468, increasing concentrations, 2 h. The method, then:
(§1) Cells were plated in 6 cm dishes at a density of 2 × 10^5 cells/dish. Aurora A activity was determined by measuring autophosphorylation of Aurora A on Thr288 in cells that were synchronized by treatment with nocodazole (100 ng/mL) for 20 h prior to the treatment with Aurora inhibitors, whereas Aurora B activity was determined by measuring phosphorylation of histone H3 on Ser-10 (p-HH3). […] Cells were harvested after 2 h of treatment and processed for SDS−PAGE and Western blotting.
(§2) Cells were harvested from experiments of ectopic expression or knockdown using siRNA or the treatment with the inhibitors, washed, and then lysed using lysis buffer as previously described. The protein concentration of the lysate was measured, and the lysate was mixed with gel electrophoresis loading buffer, boiled for 5 minutes, separated by SDS-PAGE, and transferred to nitrocellulose membranes.

Data set [3] has as its system MDA-MB-468 cells. Briefly: Matrigel Transwell invasion, MDA-MB-468. It counts as cell-based, human. As to conditions: MDA-MB-468, 5 μM; for inhibition at 5 µM: Homo sapiens. The method, then: Cells were transfected with Aurora A and JAK2 for 48 h or with siRNA for 72 h or treated with the compounds for 24 h and then were trypsinized and resuspended in serum-free medium and placed in the upper chamber of the Matrigel-coated (0.8 μg/μL, BD Biosciences, San Diego, CA) Transwell insert (from 2 to 5 × 10^4 cells/well) and with 0.5% DMSO or the compounds at the indicated dose. Medium containing 10%FBS was placed in the lower chamber. […] Invading cells in the membrane were fixed with 100% methanol and stained with fresh prepared 0.2% crystal violet. Noninvasive cells in the upper chamber were removed by wiping the upper side of the membrane with a cotton swab, and cells located on the underside of the filter were observed and photographed under Olympus stereo microscope. The number of invading cells was counted using Image-Pro analysis software.

Data set [4] concerns the target T1, JAK2 (Homo sapiens, UniProt O60674).
T1 construct: purchased Reaction Biology Inc
Briefly: HotSpot kinase assay (Reaction Biology), JAK2. As to conditions: in vitro, HotSpot method. It counts as biochemical.

The nature of data set [5]: Mouse weights during xenograft study. The data set is classed as in vivo, nude mice. As to conditions: 50 mpk i.p. daily, over the 14-day treatment period; vehicle 3.33 %. The method, then: (§3) Female nude mice (Charles River Laboratories, Wilmington, MA) were maintained and treated in accordance with the Institutional Animal Care and Use Committee procedures and guidelines. Exponentially growing MDA-MB-468 cells were harvested via trypsinization, pelleted at 400 g for 5 min. Cell pellets were re-suspended in DPBS (Invitrogen) at 10 x10^6 cells per 200 μl, and injected into right flank of mice. The tumor xenografts were monitored with an electronic caliper measurements and tumor volume (V) was calculated using the formula V= (W × L^2)/2, where width is the largest diameter and length is the smallest diameter. When the tumors reached ~ 250 mm^3, the animals were randomized and treatment schedules were implemented. Treatments consisted of intraperitoneal (i.p.) injections of vehicle control (50% polyethylene glycol (PG) + 15% 2-hydroxypropyl-beta-cyclodextrin (HPCD) (n=5) or AJI-100 (n=6) at 50 mg/kg, everyday for 14 days.

Data set [6] deals with MDA-MB-468 tumor xenografts. Briefly: MDA-MB-468 tumor xenografts in nude mice. As to conditions: 50 mpk i.p. daily for 14 days. The data set is classed as in vivo. The method, then: as §3
For data set [7], the system named is P-Histone H3 (Ser-10), Aurora B substrate. Briefly: Western blot, phosphorylation of Histone H3 in MDA-MB-468 cells. The data set is classed as cell-based, human. As to conditions: MDA-MB-468, increasing concentrations, 2 h. As for the experimental part: as §1, §2
For orientation: A western blot detects proteins with antibodies after separation by electrophoresis.

The target in data set [8] is T2, Aurora A (Homo sapiens, UniProt O14965).
T2 construct: purchased Reaction Biology Inc
T2 sequence (O14965 1-403): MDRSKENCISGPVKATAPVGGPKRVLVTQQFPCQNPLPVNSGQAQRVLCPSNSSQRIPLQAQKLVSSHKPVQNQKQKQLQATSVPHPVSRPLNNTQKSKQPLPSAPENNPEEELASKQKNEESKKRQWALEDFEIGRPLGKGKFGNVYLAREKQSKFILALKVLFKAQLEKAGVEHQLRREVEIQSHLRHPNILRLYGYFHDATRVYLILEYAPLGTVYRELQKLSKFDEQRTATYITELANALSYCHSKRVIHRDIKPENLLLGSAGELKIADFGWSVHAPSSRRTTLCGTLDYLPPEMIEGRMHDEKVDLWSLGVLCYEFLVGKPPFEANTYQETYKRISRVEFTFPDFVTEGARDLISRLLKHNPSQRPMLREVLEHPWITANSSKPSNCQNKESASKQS
Briefly: HotSpot kinase assay (Reaction Biology), Aurora A. The data set is classed as biochemical. As to conditions: in vitro, HotSpot method.

In data set [9] the target is T3, Aurora B (Homo sapiens, UniProt Q96GD4).
T3 construct: purchased Reaction Biology Inc
T3 sequence (Q96GD4 whole entry): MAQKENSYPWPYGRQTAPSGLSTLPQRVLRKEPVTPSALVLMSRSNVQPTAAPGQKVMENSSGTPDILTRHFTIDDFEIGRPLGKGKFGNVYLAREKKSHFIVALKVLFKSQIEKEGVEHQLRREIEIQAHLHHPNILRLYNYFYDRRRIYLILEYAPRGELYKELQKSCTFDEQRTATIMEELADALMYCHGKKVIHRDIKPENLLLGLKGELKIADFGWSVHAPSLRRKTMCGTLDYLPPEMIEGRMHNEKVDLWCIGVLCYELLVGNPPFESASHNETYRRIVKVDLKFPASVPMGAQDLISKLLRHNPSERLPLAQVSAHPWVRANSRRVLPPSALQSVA
Briefly: HotSpot kinase assay (Reaction Biology), Aurora B. It counts as biochemical. As to conditions: in vitro, HotSpot method.

In data set [10] the test system is MDA-MB-468 cells. Briefly: Anchorage-dependent proliferation, MTT assay, MDA-MB-468. The data set is classed as cell-based. As to conditions: Homo sapiens; MDA-MB-468, MTT, 48 h. The method, then:
Cells were cultured in 96 well plates at a density of 2,000 cells/ well. The cells with siRNA transfection or with the inhibitor treatment were monitored for viability using MTT at indicated time points. At the given time points, MTT reagent was added to the media and allowed to incubate for 3 h at 37° C in a humidified incubator at 5% CO2. The medium was then removed and MTT crystals were dissolved in DMSO (Sigma). Cell viability was quantified by reading the plates at an absorbance of 540 nm on a μQuant microplate reader using KC4 data analysis software (Bio-Tek Instruments). The 540 nm absorbance of vehicle-treated wells was used to define 100% proliferation. Each condition was performed in replicates of six wells.

In data set [11] the test system is MDA-MB-468 cells. Briefly: Soft agar anchorage-independent growth, MDA-MB-468. It counts as cell-based, human. As to conditions: MDA-MB-468, increasing concentrations. The method, then: For analysis of anchorage-independent growth, log-phase growing cells were trypsinized, and triplicates of 1.5 × 10^3 cells per well were seeded in regular growth medium containing 0.3% agar (Sigma) and drug added at the indicated concentrations, as previously described. The cells were allowed to incubate at 37° C for 3 weeks and fed once per week with the inhibitor before 1 mg/ml MTT (Sigma) solution was added overnight to facilitate colony counting. Colonies were scored and counted according to size, as previously described.

For `C[C@]12O[C@H](C[C@]1(O)CO)n1c3ccccc3c3c4c(c5c6ccccc6n2c5c31)CNC4=O` [CEP-701], the pIC50 in data set [1] was […].

T1 sequence (O60674 whole entry): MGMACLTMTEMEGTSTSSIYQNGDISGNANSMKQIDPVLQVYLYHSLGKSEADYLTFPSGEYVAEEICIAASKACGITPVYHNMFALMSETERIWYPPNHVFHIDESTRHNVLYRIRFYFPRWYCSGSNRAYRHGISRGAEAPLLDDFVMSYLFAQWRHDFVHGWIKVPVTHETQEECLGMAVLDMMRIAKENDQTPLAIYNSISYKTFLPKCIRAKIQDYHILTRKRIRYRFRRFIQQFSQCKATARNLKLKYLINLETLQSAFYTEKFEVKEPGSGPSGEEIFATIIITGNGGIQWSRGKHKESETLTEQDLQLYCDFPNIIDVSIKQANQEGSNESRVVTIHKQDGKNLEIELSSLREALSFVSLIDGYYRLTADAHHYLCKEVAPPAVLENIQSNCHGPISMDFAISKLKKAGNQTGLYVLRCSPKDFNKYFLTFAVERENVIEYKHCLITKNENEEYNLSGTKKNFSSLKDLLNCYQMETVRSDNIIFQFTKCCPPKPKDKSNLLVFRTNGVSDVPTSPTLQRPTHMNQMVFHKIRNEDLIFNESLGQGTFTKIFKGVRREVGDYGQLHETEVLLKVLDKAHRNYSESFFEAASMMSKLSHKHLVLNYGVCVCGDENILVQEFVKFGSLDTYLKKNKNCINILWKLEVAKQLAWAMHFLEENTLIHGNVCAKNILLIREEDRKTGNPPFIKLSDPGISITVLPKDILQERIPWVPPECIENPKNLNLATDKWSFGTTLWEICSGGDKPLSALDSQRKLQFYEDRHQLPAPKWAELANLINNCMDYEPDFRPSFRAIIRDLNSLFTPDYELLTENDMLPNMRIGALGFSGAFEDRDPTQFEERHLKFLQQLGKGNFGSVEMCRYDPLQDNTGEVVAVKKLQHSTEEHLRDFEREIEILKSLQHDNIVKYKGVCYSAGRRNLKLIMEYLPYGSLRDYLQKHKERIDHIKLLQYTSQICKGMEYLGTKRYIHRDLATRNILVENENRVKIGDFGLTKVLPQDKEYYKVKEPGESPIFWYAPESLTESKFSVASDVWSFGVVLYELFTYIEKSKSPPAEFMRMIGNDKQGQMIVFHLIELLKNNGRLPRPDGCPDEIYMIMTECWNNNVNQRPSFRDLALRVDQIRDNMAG

For `NC(=O)c1ccc(Nc2ncc(F)c(Nc3ccccc3)n2)cc1` [AJI-100], the “effect on phosphorylation of STAT3 (Y705)” value in [2] is “decreased”. Moreover, the inhibition at 5 µM in data set [3] (48 hr) turned out to be 41.1%; in data set [3] (72 hr), 89.8%. Further, the invaded cells in data set [3] (48 hr, vehicle 723) is 426 cells; in data set [3] (72 hr, vehicle 1020), 104 cells. Moreover, the pIC50 in data set [4] was 7.29; in data set [8] it was 8.27; in [9], 7.85; in data set [10], 5.44. In data set [5], the “increase in mouse weights” value was 0.04%. Besides, in data set [6] (regressed from 222, vehicle grew 211 to 357), the “tumor volume after 14 day treatment, representative mouse” value is on record as 158 mm3. For the same compound, the “average % change in tumor volume (regression)” value in data set [6] (vehicle grew by 40 %) is listed as 9%. Moreover, in data set [7], the “effect on phosphorylation of Histone H3 (Ser-10)” value is “decreased”. Moreover, in data set [11], the “colony formation in soft agar” value is recorded as “inhibited colony formation”.

(Values after PMC4102782, “Dual Aurora A and JAK2 kinase blockade effectively suppresses malignant transformation” (Oncotarget, 2014).)
